{"source": "patent US20050175580A1", "about": "“Compositions and methods for enhancing cytokine activity and treating hypotension associated with the administration of cytokines” (priority 2001, published 2005)", "key": {"mice [1]": {"test_system": "mice", "test": "IL-2 induced hypotension in mice, systolic blood pressure via tail cuff", "format": "in vivo", "experimental": "Parallel groups of untreated mice or mice receiving M40403 alone (at the highest dose tested of 3 mg/kg) served as a control. […] Analysis was performed using Chart 3.6.1 software (AD instruments).\nPreliminary experiments were also performed with M40401."}, "mice [2]": {"test_system": "mice", "test": "IL-2 dose escalation study with or without M40403 (deaths, blood pressure)", "format": "in vivo", "experimental": "Analysis was performed using Chart 3.6.1 software (AD instruments)."}, "murine (mouse) LAK cell": {"test_system": "murine (mouse) LAK cell", "test": "LAK cell induction in vitro, murine splenocytes activated with IL-2, cytotoxicity against RD-995 tumor, trypan blue viability", "format": "cell-based", "experimental": "Non-M40403 exposed cultures served as a positive control. After 72 h, LAK cells were harvested and cell viability evaluated. LAK cells cytotoxicity was tested against RD-995 tumor in triplicate samples at varying effector to target cell ratios (expressed as mean±SD) using previously published methods (Yim et al., 1994; Samlowski et al., 1998).\nCell viability was assessed by trypan blue exclusion. Viability remained at 100% of control at up to 10 μM M40403 (not shown)."}, "LAK cells": {"test_system": "LAK cells", "test": "LAK cell induction in vivo, 51Cr release of lymph node and spleen cells against RD-995 tumor", "design": "species or system mice", "experimental": "Parallel groups of untreated mice or mice receiving M40403 alone (at the highest dose tested of 3 mg/kg) served as a control. […] A single cell suspension was prepared from the lymph nodes and spleen from each animal, and serial dilutions made (starting from 10^6). Cytolytic activity of lymph node and spleen cells was tested against ^51Cr-radiolabeled RD-995 tumor (NK resistant, LAK sensitive, 10^4 cells) in a standard 4h ^51Cr release assay at a varying effector to target cell ratio (in triplicate). […] Statistical comparison of specific cytotoxicity (e.g. at 100:1 effector to target ratio) and lytic units per organ will be performed using Student's t-test, using Bonferroni's correction for multiple analyses."}, "RD-995 tumor": {"test_system": "RD-995 tumor", "test": "Rosenberg tumor model, RD-995 pulmonary metastases", "format": "in vivo, mice", "experimental": "RD-995 is a skin fibrosarcoma that was induced by chronic ultraviolet light exposure of a C3H/HeN mouse (Samlowski et al., 1995). This tumor grows in non-immunosuppressed mice, and is thus termed a “progressor” tumor.\nOnce stabilized, mice were injected with 10^6 RD-995 tumor cells intravenously. […] On day 14, mice were sacrificed by anesthetic overdose. After anterior thoracotomy, India ink solution (30 ml India ink, 4 drops ammonium hydroxide in 170 ml distilled water) was instilled into the trachea of each mouse via 18 ga. needle, until the lungs were completely expanded. Lungs were then excised and bleached in 5-10 ml Fekete's solution (100 ml 70% ethanol, 10 ml formaldehyde, 5 ml glacial acetic acid) for at least 24 h prior to enumeration of metastases using a magnifying lens."}, "Meth A tumor [3]": {"test_system": "Meth A tumor", "test": "Meth A fibrosarcoma tumor model (malignant ascites), survival", "format": "in vivo, BALB/c mice", "excerpt": "Meth A was induced in a BALB/c mouse by methylcholanthrene treatment (obtained from Lloyd Old, MSKCC). This very aggressive fibrosarcoma is one of the rare tumors resistant to LAK cell mediated cytolysis in vitro. […] See Yim et al., J. Immunol. 155: 4382-4390 (1995).\nSurvival of the mice was used as the major endpoint to assess therapeutic responses."}, "NO": {"test_system": "NO", "test": "Inhibition of NO (not shown)"}, "Meth A tumor [4]": {"test_system": "Meth A tumor", "test": "NO-mediated apoptosis of Meth A tumor (not shown)", "format": "cell-based, mouse"}, "[5]": {"details": "M40403 at highest dose, 3 mg/kg b.i.d. for 5 days"}, "[6]": {"details": "M40403 3 mg/kg i.p. b.i.d. in conjunction with IL-2 180,000 IU for 5 days"}}, "note": "“Also recorded” adds a separate entry of the source.", "data": [{"smiles": "[Cl-].[Cl-].[Mn+2].c1cc2nc(c1)CN[C@@H]1CCCC[C@H]1NCCN[C@@H]1CCCC[C@H]1NC2", "note": "[M40403]", "values": [{"measurement": "effect on systolic blood pressure", "setting": "mice [1]; [5]", "result": "no effect on systolic blood pressure"}, {"measurement": "signs of toxicity", "setting": "mice [1]; [5]", "result": "no apparent signs of toxicity"}, {"measurement": "reversal / attenuation of IL-2 induced hypotension", "setting": "mice [1]; SOD mimetic i.p. b.i.d. in conjunction with IL-2 180,000 IU for 5 days", "result": "attenuated in a dose-dependent manner"}, {"measurement": "dose at which maximal / full reversal of IL-2 induced hypotension was obtained", "setting": "mice [1]; b.i.d. with IL-2 for 5 days", "result": 3, "unit": "mg/kg"}, {"measurement": "Mean Systolic BP", "setting": "mice [1]; mice, n=6 per group, IL-2 180,000 IU i.p. twice daily for 5 days, M40403 alone at 3 mg/kg, tail cuff two hours after last dose of IL-2", "result": 111.21}, {"measurement": "systolic BP, mean", "setting": "mice [1]; mice, n=6 per group, IL-2 180,000 IU i.p. twice daily for 5 days, M40403 alone at 3 mg/kg, two hours after last dose of IL-2", "result": "111±45", "unit": "mmHg"}, {"measurement": "blood pressure under escalating doses of IL-2", "setting": "mice [2]; M40403 3 mg/kg i.p. b.i.d. in conjunction with IL-2", "result": "allowed BP to be maintained"}, {"measurement": "deaths", "setting": "mice [2]; M40403 3 mg/kg i.p. b.i.d. in conjunction with IL-2, all doses of IL-2 (180,000-400,000 IU)", "result": "0 deaths of 6 mice"}, {"measurement": "effect on murine LAK cell activation by IL-2", "setting": "murine (mouse) LAK cell; M40403 0-10 μM during IL-2 activation (6000 IU/ml rhIL-2), 72 h", "result": "did not adversely affect; also recorded: do not adversely affect"}, {"measurement": "dose dependence of LAK cell activation", "setting": "murine (mouse) LAK cell; increasing concentrations of M40403 during IL-2 activation", "result": "dose-dependent increase"}, {"measurement": "cell viability", "setting": "murine (mouse) LAK cell; up to 10 μM M40403, trypan blue exclusion", "result": "100 % of control"}, {"measurement": "IL-2 induced LAK cells activation in vivo, lymph nodes", "setting": "LAK cells; [6]", "result": "significantly potentiated"}, {"measurement": "IL-2 induced LAK cells activation in vivo, spleen", "setting": "LAK cells; [6]", "result": "significantly potentiated"}, {"measurement": "LAK cell induction in vivo", "setting": "LAK cells; M40403 by itself, 3 mg/kg", "result": "did not increase"}, {"measurement": "effect on the anti-tumor effects of IL-2", "setting": "RD-995 tumor; M40403 3 mg/kg concurrently with IL-2", "result": "did not affect the anti-tumor effects of IL-2"}, {"measurement": "number of tumor nodules in lungs", "setting": "RD-995 tumor; single agent, IL-2 180,000 IU i.p. every 12 h for 5 days or M40403 3 mg/kg, day 14", "result": "completely eliminated"}, {"measurement": "IL-2 induced anti-tumor responses, combination of IL-2 with M40403", "setting": "Meth A tumor [3]; IL-2 180,000 IU s.c. with M40403 3 mg/kg s.c.", "result": "improves IL-2 induced anti-tumor responses"}, {"measurement": "effect on survival", "setting": "Meth A tumor [3]; M40403 itself, 3 mg/kg s.c.", "result": "did not affect survival"}, {"measurement": "inhibition of NO", "setting": "NO", "result": "does not inhibit"}, {"measurement": "effect on NO-mediated apoptosis of Meth A tumor", "setting": "Meth A tumor [4]", "result": "does not affect"}]}]}
